# Earlier results as cited in publication PMC9788431, “Combination of Docking-Based and Pharmacophore-Based Virtual Screening Identifies Novel Agonists That Target the Urotensin Receptor” (Molecules, 2022).
# Several values for one entry are separate records, joined by “and”; a condition that tells them apart may be missing. Equal entries are not always repeated. Positions of bridges follow the written chain, without caps; N, C: chain ends. Non-standard residues stand in square brackets, D forms with d. Residues, ends and D or L forms follow the SMILES beside them. Phe(4-I) = N[C@@H](Cc1ccc(I)cc1)C(=O)O; dTle = CC(C)(C)[C@@H](N)C(=O)O
# Assays:
# UT receptor [1] = target: T1, UT receptor (Homo sapiens, UniProt Q9UKP6); design: method as in ChEMBL database and others; conditions: antagonist; Table S1 benchmarking ligands; ref ChEMBL database and others; cited from earlier work
# T1 construct: SNAP-tag; expressed in transfected cells; host or cells: 293A8 (HEK293A stably transfected with the UT receptor); inferred, the calcium-assay paragraph names no cells
# T1 sequence (Q9UKP6 1-389): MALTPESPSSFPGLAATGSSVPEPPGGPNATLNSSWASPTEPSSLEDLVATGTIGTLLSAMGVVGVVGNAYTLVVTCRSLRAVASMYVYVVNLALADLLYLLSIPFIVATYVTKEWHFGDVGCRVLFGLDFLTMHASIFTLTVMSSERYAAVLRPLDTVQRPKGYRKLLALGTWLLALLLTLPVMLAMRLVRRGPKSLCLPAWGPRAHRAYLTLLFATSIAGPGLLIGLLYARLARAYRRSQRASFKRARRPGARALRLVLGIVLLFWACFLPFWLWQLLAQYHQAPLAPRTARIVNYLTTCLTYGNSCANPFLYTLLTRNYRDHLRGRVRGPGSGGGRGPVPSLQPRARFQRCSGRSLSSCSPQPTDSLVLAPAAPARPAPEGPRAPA
# UT receptor [2] = target: T1, UT receptor; conditions: agonist; Table S1 benchmarking ligands; ref ChEMBL database and others; cited from earlier work
SMILES,IC50 (UT receptor [1]),EC50 (UT receptor [2]) [nM]
CN(C)CCOc1cc(NCc2ccccc2C(F)(F)F)ccc1Cl [CHEMBL2348515],520 nM and 765 nM,
Cc1cc2nccc(NC(=O)NCCN3CCC(O)(Cc4ccccc4)CC3)c2s1 [CHEMBL3358674],78 nM,
CC(C)[C@H](NC(=O)[C@@H]1CSSC[C@H](NC(=O)[C@H](C)N)C(=O)N[C@@H](Cc2ccccc2)C(=O)N[C@@H](Cc2ccc(I)cc2)C(=O)N[C@@H](CCCCN)C(=O)N[C@@H](Cc2ccc(O)cc2)C(=O)N1)C(=O)O [CHEMBL3104639],58 nM,
COc1cc(Br)c(SCc2ccc(Cl)c(O[C@@H]3CCN(C)C3)c2)cc1OC [CHEMBL2348505],440 nM,
Cc1cccc(CC2(O)CCN(CCNC(=O)Nc3ccnc4ccsc34)CC2)c1 [CHEMBL3358683],140 nM,
COc1ccc([C@H](CCCNS(=O)(=O)c2cccs2)N2C(=O)c3cccc(N4CCN([C@H](C)c5ccccc5)CC4)c3C2=O)cc1OC [CHEMBL565580],260 nM,
Cc1ccc(-c2ccc3cc(C(=O)NC4CCN(Cc5ccc(OC6CCNCC6)c(Br)c5)CC4)sc3c2)cc1 [CHEMBL3898238],140 nM,
CC(C)[C@H](NC(=O)[C@@H]1CSSC[C@H](NC(=O)[C@H](C)N)C(=O)N[C@@H](Cc2ccccc2)C(=O)N[C@@H]2Cc3c([nH]c4ccccc34)CN(C2=O)[C@@H](CCCCN)C(=O)N[C@@H](Cc2ccc(O)cc2)C(=O)N1)C(=O)O [CHEMBL3104461],60 nM,
COc1ccc([C@@H](CCCNS(=O)(=O)c2cccs2)N2C(=O)c3cccc(N4CCN([C@H](C)c5ccccc5)CC4)c3C2=O)cc1OC [CHEMBL568165],240 nM,
O=C(NCCN1CCC(O)(Cc2cccc(Br)c2)CC1)Nc1ccnc2ccsc12 [CHEMBL3358686],42 nM,
CN1CC[C@H](Oc2cc(NCc3c(Br)ccc4c3OCO4)ccc2C(F)(F)F)C1 [CHEMBL2348518],620 nM,
CCc1cc(NC(=O)NCCN2CCC(O)(Cc3ccccc3)CC2)c2sccc2n1 [CHEMBL3358680],60 nM,
CC(C)[C@H](NC(=O)[C@@H]1CSSC[C@H](NC(=O)[C@H](C)N)C(=O)N[C@@H](Cc2ccccc2)C(=O)N[C@@H](c2ccccc2)C(=O)N[C@@H](CCCCN)C(=O)N[C@@H](Cc2ccc(O)cc2)C(=O)N1)C(=O)O [CHEMBL3104462],29.5 nM,
CN1CC[C@H](Oc2cc(NCc3ccccc3Br)ccc2C(F)(F)F)C1 [CHEMBL2348514],821 nM,
O=C(NC1CCN(Cc2ccc(OC3CCNCC3)c(Br)c2)CC1)c1cnccn1 [CHEMBL3920751],610 nM,
COc1ccc([C@@H](CCCN(C)S(=O)(=O)c2cccs2)N2Cc3c(cccc3N3CCN(C4CCC4)CC3)C2=O)cc1OC [CHEMBL571537],510 nM,
O=C(NC1CCN(Cc2ccc(OC3CCNCC3)c(Br)c2)CC1)c1cc2cc(-c3ccccc3)ccc2s1 [CHEMBL3949719],310 nM,
Cn1ccc2c(NC(=O)NCCN3CCC(O)(Cc4ccccc4)CC3)ccnc21 [CHEMBL3358667],160 nM,
COc1cc(Br)c(S(=O)(=O)Nc2ccc(C(F)(F)F)c(OCCN3CCN(C)CC3)c2)cc1OC [CHEMBL2348527],840 nM,
CCN1CCN(c2cccc3c2C(=O)N([C@H](CCCNS(=O)(=O)c2cccs2)c2ccc(OC)c(OC)c2)C3=O)CC1 [CHEMBL566433],150 nM,
COc1cccc(CNc2ccc(C(F)(F)F)c(O[C@H]3CCN(C)C3)c2)c1 [CHEMBL2348517],691 nM,
Cc1cc(NC(=O)NCCN2CCC(O)(Cc3ccccc3)CC2)c2ccccc2n1 [CHEMBL1164032],3.6 nM,
CC(C)[C@H](NC(=O)[C@@H]1CSSC[C@H](NC(=O)[C@H](C)N)C(=O)N[C@@H](Cc2ccccc2)C(=O)N2Cc3ccccc3C[C@@H]2C(=O)N[C@@H](CCCCN)C(=O)N[C@@H](Cc2ccc(O)cc2)C(=O)N1)C(=O)O [CHEMBL3104467],88 nM,
CC(C)[C@H](NC(=O)[C@@H]1CSSC[C@H](NC(=O)[C@H](C)N)C(=O)N[C@@H](Cc2ccccc2)C(=O)N[C@H](c2ccccc2)C(=O)N[C@@H](CCCCN)C(=O)N[C@@H](Cc2ccc(O)cc2)C(=O)N1)C(=O)O [CHEMBL3104463],27.5 nM,
Cc1ccc2sc(C(=O)NC3CCN(Cc4ccc(OC5CCNCC5)c(Br)c4)CC3)cc2c1 [CHEMBL3968841],74 nM,
O=C(NC1CCN(Cc2ccc(OC3CCNCC3)c(Br)c2)CC1)c1cccs1 [CHEMBL3979822],130 nM,
CC(C)[C@H](NC(=O)[C@@H]1CSSC[C@H](NC(=O)[C@H](C)N)C(=O)N[C@@H](Cc2ccccc2)C(=O)N2CCc3ccccc3[C@H]2C(=O)N[C@@H](CCCCN)C(=O)N[C@@H](Cc2ccc(O)cc2)C(=O)N1)C(=O)O [CHEMBL3104464],10 nM,

SMILES,IC50 (UT receptor [1]),EC50 (UT receptor [2]) [nM]
CC(C)[C@H](NC(=O)[C@@H]1CSSC[C@H](NC(=O)[C@H](C)N)C(=O)N[C@@H](Cc2ccccc2)C(=O)N[C@H](Cc2cccc3ccccc23)C(=O)N[C@@H](CCCCN)C(=O)N[C@@H](Cc2ccc(O)cc2)C(=O)N1)C(=O)O [CHEMBL3104638],46 nM,
COc1ccc([C@@H](CCCNS(=O)(=O)c2cccs2)N2Cc3c(cccc3N3CCN(C(C)C)CC3)C2=O)cc1OC [CHEMBL568637],53 nM,
COc1ccc([C@@H](CCCNS(=O)(=O)c2c(C)n[nH]c2C)N2C(=O)c3cccc(N4CCN([C@H](C)c5ccccc5)CC4)c3C2=O)cc1OC [CHEMBL567759],47 nM,
COc1cccc(-c2ccc3cc(C(=O)NC4CCN(Cc5ccc(OC6CCNCC6)c(Br)c5)CC4)sc3c2)c1 [CHEMBL3987058],87 nM,
CCN1CCN(c2cccc3c2CN([C@H](CCCNS(=O)(=O)c2cccs2)c2ccc(OC)c(OC)c2)C3=O)CC1 [CHEMBL567713],8 nM,
O=C(NCCN1CCC(O)(Cc2ccccc2)CC1)Nc1ccnc2ccoc12 [CHEMBL3358671],450 nM,
COc1cc(Br)c([S+]([O-])Cc2ccc(Cl)c(O[C@@H]3CCN(C)C3)c2)cc1OC (stereo partly drawn) [CHEMBL2348504],245 nM,
COc1ccc([C@@H](CCCNC(=O)c2cnoc2C)N2C(=O)c3cccc(N4CCN([C@H](C)c5ccccc5)CC4)c3C2=O)cc1OC [CHEMBL568764],760 nM,
Cc1ccccc1CC1(O)CCN(CCNC(=O)Nc2ccnc3ccsc23)CC1 [CHEMBL3358682],20 nM,
O=C(NC1CCN(Cc2ccc(OC3CCNCC3)c(Br)c2)CC1)c1cc2cc(C(F)(F)F)ccc2s1 [CHEMBL3906682],100 nM,
NCCCC[C@@H]1NC(=O)[C@H](Cc2c[nH]c3ccccc23)NC(=O)[C@H](CO)NC(=O)CNC(=O)[C@@H]2CCCN2C(=O)[C@H](Cc2c[nH]c3ccccc23)NC1=O [CHEMBL608099] (cyclo(GSWKWP)),,16.7
CN(C)CCC(NC(=O)Nc1ccc(Oc2ccccc2)cc1)c1ccc(Cl)cc1 (stereo not drawn) [CHEMBL383698],,110
CN(C)CC[C@H](NC(=O)c1ccc2ccccc2c1)c1ccc(Cl)cc1 [CHEMBL207783],,407
C[C@@H](O)[C@H](NC(=O)[C@@H](N)CCC(=O)O)C(=O)N1CCC[C@@H]1C(=O)N[C@@H](CC(=O)O)C(=O)N[C@@H](CS)C(=O)N[C@@H](Cc1ccccc1)C(=O)N[C@@H](Cc1c[nH]c2ccccc12)C(=O)N[C@@H](CCCCN)C(=O)N[C@@H](Cc1ccc(O)cc1)C(=O)N[C@@H](CS)C(=O)O [CHEMBL385616] (H-ET[dP]DCFWKYC-OH),,1.8
COc1ccc(-c2ccc(C(=O)NC(CCN(C)C)c3ccc(Cl)cc3)cc2)cc1 (stereo not drawn) [CHEMBL573569],,74.1
CN(C)CCC(OC(=O)Nc1ccc(Oc2ccccc2)cc1)c1ccc(Cl)cc1 (stereo not drawn) [CHEMBL383326],,191
CN(C)CCC(NC(=O)/C=C/c1ccccc1)c1ccc(Cl)cc1 (stereo not drawn) [CHEMBL374817],,427
Cc1cc2c(cc1C)C(=O)OC(CCN(C)C)(c1ccc(Cl)cc1)C2 (stereo not drawn) [CHEMBL380346],,135
Cc1ccc(C(CCN(C)C)NC(=O)c2ccc(-c3ccc4ccccc4c3)cc2)cc1 (stereo not drawn) [CHEMBL575630],,813
CN(C)CCC(NC(=O)c1ccc(-c2ccc(Cl)cc2)cc1)c1ccc2ccccc2c1 (stereo not drawn) [CHEMBL572439],,43.6
COc1ccc(/C=C/C(=O)NC(CCN(C)C)c2ccc(Cl)cc2)cc1 (stereo not drawn) [CHEMBL387661],,513
Cc1cc2c(cc1C)CC(CCN(C)C)(c1ccc3ccccc3c1)OC2 (stereo not drawn) [CHEMBL1172223],,263
CSCC[C@H](NC(=O)CNC(=O)[C@@H](NC(=O)CNC(=O)[C@@H](NC(=O)[C@H](NC(=O)[C@H](CC(N)=O)NC(=O)[C@H](CCCNC(=N)N)NC(=O)[C@H](Cc1ccccc1)NC(=O)[C@@H](N)CO)C(C)(C)C)C(C)C)[C@@H](C)O)C(=O)N[C@@H](CCCCN)C(=O)N[C@@H](CCCCN)C(=O)N[C@H](C(=O)N[C@@H](CO)C(=O)N[C@@H](Cc1ccccc1)C(=O)N[C@@H](CCC(N)=O)C(=O)N[C@@H](CCCNC(=N)N)C(=O)N[C@@H](C)C(=O)N[C@@H](CCCCN)C(=O)N[C@@H](CO)C(=O)O)[C@@H](C)O [CHEMBL1627325] (H-SFRN[dTle]VGTGMKKTSFQRAKS-OH),,3.47
Cc1ccc(C(CCN(C)C)NC(=O)/C=C/c2ccc(C(F)(F)F)cc2)cc1 (stereo not drawn) [CHEMBL229923],,437
COc1ccc(-c2cccc(C(=O)NC(CCN(C)C)c3ccc4ccccc4c3)c2)cc1 (stereo not drawn) [CHEMBL573574],,646
CN(C)CCC(OC(=O)Nc1ccc2ccccc2c1)c1ccc(Cl)cc1 (stereo not drawn) [CHEMBL203937],,525
CC(C)[C@H](NC(=O)[C@@H]1CSSC[C@H](NC(=O)[C@@H](N)CC(=O)O)C(=O)N[C@@H](Cc2ccc(I)cc2)C(=O)N[C@@H](Cc2c[nH]c3ccccc23)C(=O)N[C@@H](CCCCN)C(=O)N[C@@H](Cc2ccc(O)cc2)C(=O)N1)C(=O)O [CHEMBL4205274] (H-DC[Phe(4-I)]WKYCV-OH; disulfide 2-7),,191
